As usually defined, the IC50 is the concentration that gives 50% inhibition.

The source of these data is patent US11524968B2, “Heterocyclic compound as a protein kinase inhibitor” (HK inno.N Corporation, priority 2017, dated 2022).

The target of this assay is JAK1 (Homo sapiens (Human), UniProt P23458). The assay can be described thus: Analysis of JAK1 activity inhibition ability (ADP-Glo Kinase Assay). The note with it: JAK1 enzyme, ADP-Glo luminescence, ATP 250 uM, IRS-itide substrate, 30° C. 40 minutes; read-out: IC50. Type of assay: biochemical. On the procedure: Test Example 1: Analysis of JAK1 Activity Inhibition Ability of Compound of Formula 1 (ADP-Glo™ Kinase Assay)
A JAK inhibition ability of a compound according to the present invention was identified as follows.
A control material and a test material were prepared for each concentration, in such a way that they were diluted by means of DMSO. At the same time, ATP (250 uM) and JAK substrate (JAK1, IRS-itide 40 ng/mL) were prepared, in such a way that they were diluted by means of kinase buffer (40 mM Tris-HCl pH 7.5, 20 mM MgCl2, 0.5 mg/mL BSA, 50 uM DTT).
A test drug for each concentration, substrate, ATP and JAK enzyme were mixed in an eppendorf tube, and reacted in a 30° C. incubator for 40 minutes.
ADP-Glo™ reagent contained in ADP-Glo™ Kinase Enzyme System (Promega, USA, V9571) was added into each eppendorf tube, and reacted in a 30° C. incubator for 40 minutes. A kinase detection reagent contained in ADP-Go™ Kinase Enzyme System was inserted into the eppendorf tube, then an integration time was set to 1 second by using Wallac Victor 2™, then luminescence was measured, and then JAKs phosphorylation inhibition ability of the test material was analyzed. The concentration of the compound, which causes 50% of the JAK enzyme activity inhibition in comparison With the control group, was determined as IC50 (nM) of an inhibitor, wherein the results thereof are shown in a following table 1.

A value given as a limit tells only on which side of the number the result lay.

Chain of JAK1 (P23458 whole entry): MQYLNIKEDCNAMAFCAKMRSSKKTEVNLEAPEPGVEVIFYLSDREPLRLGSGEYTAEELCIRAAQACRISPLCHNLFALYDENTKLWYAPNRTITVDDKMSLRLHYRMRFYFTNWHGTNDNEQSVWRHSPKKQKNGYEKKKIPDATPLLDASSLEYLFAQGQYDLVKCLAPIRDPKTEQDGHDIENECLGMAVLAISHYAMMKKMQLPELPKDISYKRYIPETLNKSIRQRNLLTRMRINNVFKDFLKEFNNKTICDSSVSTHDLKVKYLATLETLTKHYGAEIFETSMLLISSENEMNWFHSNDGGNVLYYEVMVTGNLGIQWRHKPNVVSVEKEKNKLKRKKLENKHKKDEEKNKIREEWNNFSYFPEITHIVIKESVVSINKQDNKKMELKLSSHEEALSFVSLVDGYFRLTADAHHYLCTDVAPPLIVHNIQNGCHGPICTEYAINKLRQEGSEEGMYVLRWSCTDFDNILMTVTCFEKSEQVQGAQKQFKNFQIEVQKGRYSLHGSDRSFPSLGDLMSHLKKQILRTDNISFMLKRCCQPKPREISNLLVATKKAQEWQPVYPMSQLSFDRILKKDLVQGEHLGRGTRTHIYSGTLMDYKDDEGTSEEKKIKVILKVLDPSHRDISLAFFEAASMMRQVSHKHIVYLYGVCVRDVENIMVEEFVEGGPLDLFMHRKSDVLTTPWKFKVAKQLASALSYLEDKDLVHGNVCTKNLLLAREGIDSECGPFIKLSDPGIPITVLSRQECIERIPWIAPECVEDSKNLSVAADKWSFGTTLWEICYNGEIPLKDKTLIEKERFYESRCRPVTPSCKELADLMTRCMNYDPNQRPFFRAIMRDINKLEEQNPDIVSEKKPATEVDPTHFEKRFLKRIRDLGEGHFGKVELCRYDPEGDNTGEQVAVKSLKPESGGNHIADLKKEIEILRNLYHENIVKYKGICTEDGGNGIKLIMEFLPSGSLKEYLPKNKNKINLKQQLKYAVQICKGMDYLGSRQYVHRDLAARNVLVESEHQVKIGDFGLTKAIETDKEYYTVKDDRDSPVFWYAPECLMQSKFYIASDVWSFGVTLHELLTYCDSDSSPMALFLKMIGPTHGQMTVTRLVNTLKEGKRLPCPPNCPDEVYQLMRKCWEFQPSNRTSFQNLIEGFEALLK

Consider `O=C(Nc1cc(-c2ccc(NS(=O)(=O)c3ccc4c(c3)CCO4)cc2)c2cc[nH]c2n1)C1CC1` [Example 22, N-(4-(4-((2,3-dihydrobenzofuran)-5-sulfonamido)phenyl)-1H-pyrrolo[2,3-b]pyridin-6-yl)cyclopropanecarboxamide], for which the half-inhibitory concentration (IC50) lay within 20 to 200 nM.
As for `COc1ccc(S(=O)(=O)Nc2ccc(-c3cc(NC(=O)C4CC4)nc4[nH]ccc34)cc2)cn1` [Example 23, N-(4-(4-((6-methoxypyridine)-3-sulfonamido)phenyl)-1H-pyrrolo[2,3-b]pyridin-6-yl)cyclopropanecarboxamide], the IC50 is less than 20 nM.
As to `O=C(Nc1cc(-c2ccc(NS(=O)(=O)c3ccccc3)cc2)c2cc[nH]c2n1)C1CC1` [Example 24, N-(4-(4-(phenylsulfonamido)phenyl)-1H-pyrrolo[2,3-b]pyridin-6-yl)cyclopropanecarboxamide], the IC50 is less than 20 nM.
Take `O=C(Nc1cc(-c2ccc(NS(=O)(=O)c3cccc(F)c3)cc2)c2cc[nH]c2n1)C1CC1` [Example 25, N-(4-(4-((3-fluorophenyl)sulfonamido)phenyl)-1H-pyrrolo[2,3-b]pyridin-6-yl)cyclopropanecarboxamide]: the IC50 is less than 20 nM.
In the case of `O=C(Nc1cc(-c2ccc(NS(=O)(=O)c3cccc(Cl)c3)cc2)c2cc[nH]c2n1)C1CC1` [Example 26, N-(4-(4-((3-chlorophenyl)sulfonamido)phenyl)-1H-pyrrolo[2,3-b]pyridin-6-yl)cyclopropanecarboxamide], the IC50 fell in the range of 20 to 200 nM.
Take `Cc1ccc(S(=O)(=O)Nc2ccc(-c3cc(NC(=O)C4CC4)nc4[nH]ccc34)cc2)cc1` [Example 27, N-(4-(4-((4-methylphenyl)sulfonamido)phenyl)-1H-pyrrolo[2,3-b]pyridin-6-yl)cyclopropanecarboxamide]: the IC50 was 20 to 200 nM.
In the case of `CSc1ccc(S(=O)(=O)Nc2ccc(-c3cc(NC(=O)C4CC4)nc4[nH]ccc34)cc2)cc1` [Example 28, N-(4-(4-((4-(methylthio)phenyl)sulfonamido)phenyl)-1H-pyrrolo[2,3-b]pyridin-6-yl)cyclopropanecarboxamide], the IC50 lay in the range of 20 to 200 nM.
With `CCS(=O)(=O)Nc1ccc(-c2cc(NC(=O)C3CC3)nc3[nH]ccc23)c(C)c1` [Example 29, N-(4-(4-(ethylsulfonamido)-2-methylphenyl)-1H-pyrrolo[2,3-b]pyridin-6-yl)cyclopropanecarboxamide], the IC50 is less than 20 nM.
Turning to `CCS(=O)(=O)Nc1ccc(-c2cc(NC(=O)C3CC3)nc3[nH]ccc23)c(F)c1` [Example 30, N-(4-(4-(ethylsulfonamido)-2-fluorophenyl)-1H-pyrrolo[2,3-b]pyridin-6-yl)cyclopropanecarboxamide], the IC50 was less than 20 nM.
For the molecule `O=C(Nc1cc(-c2ccc(NS(=O)(=O)c3ccc(Br)c(F)c3)cc2)c2cc[nH]c2n1)C1CC1` [Example 31, N-(4-(4-((4-bromo-3-fluorophenyl)sulfonamido)phenyl)-1H-pyrrolo[2,3-b]pyridin-6-yl)cyclopropanecarboxamide], the IC50 lay within 20 to 200 nM.
In the case of `O=C(Nc1cc(-c2ccc(NS(=O)(=O)c3ccc(Br)cc3F)cc2)c2cc[nH]c2n1)C1CC1` [Example 32, N-(4-(4-((4-bromo-2-fluorophenyl)sulfonamido)phenyl)-1H-pyrrolo[2,3-b]pyridin-6-yl)cyclopropanecarboxamide], the IC50 was in the range of 20 to 200 nM.
As to `O=C(Nc1cc(-c2ccc(NS(=O)(=O)c3ccc(Cl)c(C(F)(F)F)c3)cc2)c2cc[nH]c2n1)C1CC1` [Example 33, N-(4-(4-((4-chloro-3-(trifluoromethyl)phenyl)sulfonamido)phenyl)-1H-pyrrolo[2,3-b]pyridin-6-yl)cyclopropanecarboxamide], the IC50 lay in the range of 20 to 200 nM.
Consider `O=C(Nc1cc(-c2ccc(NS(=O)(=O)c3ccc4c(c3)OCO4)cc2)c2cc[nH]c2n1)C1CC1` [Example 34, N-(4-(4-(benzo[d][1,3]dioxole-5-sulfonamido)phenyl)-1H-pyrrolo[2,3-b]pyridin-6-yl)cyclopropanecarboxamide], for which the IC50 was less than 20 nM.
`CCS(=O)(=O)Nc1ccc(-c2cc(NC(=O)C3CC3C)nc3[nH]ccc23)cc1` (stereo not drawn) [Example 35, N-(4-(4-(ethylsulfonamido)phenyl)-1H-pyrrolo[2,3-b]pyridin-6-yl)-2-methylcyclopropane-1-carboxamide]: the IC50 was less than 20 nM.
The figure for `O=C(Nc1cc(-c2ccc(NS(=O)(=O)Cc3ccc(F)cc3)cc2)c2cc[nH]c2n1)C1CC1` [Example 36, N-(4-(4-(((4-fluorophenyl)methyl)sulfonamido)phenyl)-1H-pyrrolo[2,3-b]pyridin-6-yl)cyclopropanecarboxamide] is less than 20 nM.
Regarding `CN(C)S(=O)(=O)c1ccc(S(=O)(=O)Nc2ccc(-c3cc(NC(=O)C4CC4)nc4[nH]ccc34)cc2)cc1` [Example 37, N-(4-(4-((4-(N,N-dimethylsulfamoyl)phenyl)sulfonamido)phenyl)-1H-pyrrolo[2,3-b]pyridin-6-yl)cyclopropanecarboxamide], the IC50 lay in the range of 20 to 200 nM.
For `O=C(Nc1cc(-c2ccc(NS(=O)(=O)c3ccc4c(c3)OCCO4)cc2)c2cc[nH]c2n1)C1CC1` [Example 38, N-(4-(4-((2,3-dihydrobenzo[b][1,4]dioxine)-6-sulfonamido)phenyl)-1H-pyrrolo[2,3-b]pyridin-6-yl)cyclopropanecarboxamide], the IC50 was in the range of 20 to 200 nM.
In the case of `O=C(Nc1cc(-c2ccc(NS(=O)(=O)c3ccc(-n4cnnn4)cc3)cc2)c2cc[nH]c2n1)C1CC1` [Example 39, N-(4-(4-((4-(1H-tetrazol-1-yl)phenyl)sulfonamido)phenyl)-1H-pyrrolo[2,3-b]pyridin-6-yl)cyclopropanecarboxamide], the IC50 was 20 to 200 nM.
For the molecule `N#Cc1ccc(S(=O)(=O)Nc2ccc(-c3cc(NC(=O)C4CC4)nc4[nH]ccc34)cc2)cn1` [Example 40, N-(4-(4-((6-cyanopyridine)-3-sulfonamido)phenyl)-1H-pyrrolo[2,3-b]pyridin-6-yl)cyclopropanecarboxamide], the IC50 fell in the range of 20 to 200 nM.
With `CC(C)S(=O)(=O)Nc1ccc(-c2cc(NC(=O)C3CC3)nc3[nH]ccc23)cc1` [Example 41, N-(4-(4-((1-methylethyl)sulfonamido)phenyl)-1H-pyrrolo[2,3-b]pyridin-6-yl)cyclopropanecarboxamide], the IC50 was less than 20 nM.
Consider `CCC(CC)S(=O)(=O)Nc1ccc(-c2cc(NC(=O)C3CC3)nc3[nH]ccc23)cc1` [Example 42, N-(4-(4-((1-ethylpropyl)sulfonamido)phenyl)-1H-pyrrolo[2,3-b]pyridin-6-yl)cyclopropanecarboxamide], for which the IC50 was less than 20 nM.
Regarding `CC(C)CS(=O)(=O)Nc1ccc(-c2cc(NC(=O)C3CC3)nc3[nH]ccc23)cc1` [Example 43, N-(4-(4-((2-methylpropyl)sulfonamido)phenyl)-1H-pyrrolo[2,3-b]pyridin-6-yl)cyclopropanecarboxamide], the IC50 was less than 20 nM.
For `CC(C)(C)CS(=O)(=O)Nc1ccc(-c2cc(NC(=O)C3CC3)nc3[nH]ccc23)cc1` [Example 44, N-(4-(4-((2,2-dimethylpropyl)sulfonamido)phenyl)-1H-pyrrolo[2,3-b]pyridin-6-yl)cyclopropanecarboxamide] the value was less than 20 nM.
`CC(C)CCS(=O)(=O)Nc1ccc(-c2cc(NC(=O)C3CC3)nc3[nH]ccc23)cc1` [Example 45, N-(4-(4-((3-methylbutyl)sulfonamido)phenyl)-1H-pyrrolo[2,3-b]pyridin-6-yl)cyclopropanecarboxamide]: the IC50 is less than 20 nM.
